Laboratory results published in patent US11085033B2, “Glycosylated oxalate decarboxylase and preparation and application thereof” (WUHAN KANGFUDE BIOTECHNOLOGY CO., LTD., priority 2016, dated 2021).

How the values were obtained:
[1] = molecular target: Agrocybe aegerita glycosylated oxalate decarboxylase (OxDc), naturally expressed by acid induction; test: Determination of Km of Agrocybe aegerita oxalate decarboxylase by double reciprocal method; oxalate degradation by HPLC, 37° C.; format: biochemical
Protocol: In this invention, high performance liquid chromatography (HPLC) is used to determine the activity of oxalate decarboxylase. The operation process is as follows: preheating 1.0 mL 5 mM (mmol/L) oxalate solution (25 mM citrate buffer solution contained, pH 3.0) at 37° C. for 10 min and adding 0.01-0.1 ml (added volume is adjusted according to enzyme concentration) solution containing oxalate decarboxylase or fungus powder suspension into the oxalate solution for reaction; adding 50 μL 2.5M (molar concentration) H2SO4 to inactivate the enzyme after reacting for 30 minutes; quickly centrifuging the reaction solution and collecting supernatant to determine the concentration of residual oxalate by using HPLC. One enzyme activity unit (U) is defined as the required enzyme amount to degrade 1 micromole oxalate per minute on this condition.
The enzyme activity of the purified glycosylated oxalate decarboxylase obtained in Embodiment 2 was determined at pH 3.0, and the result is shown in Table 1. […] Different enzyme batches show the Kin value between 0.03 and 1.0 mM at different pH (pH 2.5-6.0), and the average Kin value at optimal pH range of pH 2.5-3.0 is 0.06 mM, as is shown in Table 2.

[2] = system: Bacillus subtilis oxalate decarboxylase (OxDc); settings: even under a condition of an ideal pH value; read-out: Kin value; cited from earlier work

O=C(O)C(=O)O [oxalate]
Kin value (average at optimal pH) ([1]; optimal pH range pH 2.5-3.0): 0.06 mM
Km ([1]; pH 3.0-3.5): 120 ± 40 µM
Km ([1]; pH 3.5-4.0): 200 ± 30 µM
Km ([1]; pH 4.0-4.5): 250 ± 80 µM
Km ([1]; pH 4.5-5.0): 360 ± 130 µM
Km ([1]; pH 5.0-6.0): 700 ± 300 µM
Km [2]: 4000 µM
